In ChEMBL document CHEMBL1146143, “New ligand-based approach for the discovery of antitrypanosomal compounds” (2006) one finds Activity data, which are given here for twelve molecules.

For assay [1], the system named is Trypanosoma cruzi. Briefly: Antitrypanosomal activity against Trypanosoma cruzi epimastigotes at 10 ug/ml. It counts as functional.
Assay [2] relates to Trypanosoma cruzi. Briefly: Antitrypanosomal activity against Trypanosoma cruzi epimastigotes at 100 ug/ml. It counts as functional.
The test system of the next assay is Mus musculus. Briefly: Antitrypanosomal activity against Trypanosoma cruzi infected NMRI mice at 50 mg/kg/day. It counts as functional.
Assay [3] has as its system J774. Briefly: Unspecific cytotoxicity against murine J774 macrophages at 10 ug/ml. The class given is functional, Mus musculus.
Assay [4] concerns Trypanosoma cruzi. Briefly: Antitrypanosomal activity against Trypanosoma cruzi epimastigotes at 1 ug/ml. The class given is functional.
Assay [5] has as its system J774. Briefly: Unspecific cytotoxicity against murine J774 macrophages at 1 ug/ml. The class given is functional, Mus musculus.
Assay [6] relates to Trypanosoma cruzi. Briefly: Antitrypanosomal activity against Trypanosoma cruzi amastigotes at 100 ug/ml. It counts as functional.
Assay [7] deals with J774. Briefly: Unspecific cytotoxicity against murine J774 macrophages at 100 ug/ml. It counts as functional, Mus musculus.
Assay [8] deals with Trypanosoma cruzi. Briefly: Antitrypanosomal activity against Trypanosoma cruzi amastigotes at 10 ug/ml. It counts as functional.
The subject of assay [9] is Trypanosoma cruzi. Briefly: Antitrypanosomal activity against Trypanosoma cruzi amastigotes at 1 ug/ml. The class given is functional.

With `CN1CC(=O)N(C)c2cc([N+](=O)[O-])ccc21`, the Activity is 21.6% in the assay on Trypanosoma cruzi [1]; 72.7% in the assay with Trypanosoma cruzi [2]; 60.7% in the assay with Mus musculus; 0% with J774 [3]; 22.5% in the assay on Trypanosoma cruzi [4]; 0% with J774 [5]. The Activity in the assay on Trypanosoma cruzi [6] was determined as 85.4%; in the assay with J774 [7], 0%.
Consider `O=C1Nc2cc([N+](=O)[O-])ccc2N2CCCCC12` (stereo not given), for which the Activity in the assay with Trypanosoma cruzi [1] turned out to be 30.9%; in the assay on Trypanosoma cruzi [2], 77%; with J774 [3], 5.6%; with Trypanosoma cruzi [4], 3.9%; in the assay on J774 [5], 2.4%; with J774 [7] it was 34.2%.
With `O=C1Nc2cc([N+](=O)[O-])ccc2N2Cc3ccccc3CC12` (stereo not given), the Activity was 29.4% in the assay on Trypanosoma cruzi [1]; 72.1% in the assay on Trypanosoma cruzi [2]; 0% with J774 [3]; 19.4% with Trypanosoma cruzi [4]; 0% in the assay with J774 [5]; 50.4% with J774 [7].
As for `CN1C(=O)C[N+](C)(C)c2ccc([N+](=O)[O-])cc21.[Cl-]`, the Activity is listed as 9% in the assay with Trypanosoma cruzi [1]; 67.2% in the assay with Trypanosoma cruzi [2]; 10.5% in the assay on J774 [3]; 0.9% with Trypanosoma cruzi [4]; 9.8% with J774 [5]; 64.8% in the assay with J774 [7].
In the case of `O=C1CN(CCCCCCCl)c2ccc([N+](=O)[O-])cc2N1`, the Activity was found to be 72.1% in the assay with Trypanosoma cruzi [1]; 90.9% in the assay with Trypanosoma cruzi [2]; 100% in the assay with Trypanosoma cruzi [8]; 32.9% in the assay with J774 [3]; 23.2% with Trypanosoma cruzi [4]; 16.6% in the assay with J774 [5]. The Activity with J774 [7] stood at 97.4%.
Turning to `O=C(CN1CCCCC1)Nc1cc([N+](=O)[O-])ccc1Cl`, the figures for the Activity in the assay on Trypanosoma cruzi [1], with Trypanosoma cruzi [2] and with Trypanosoma cruzi [4] were 1.3%, 11% and 21.9%, respectively.
On the same counts, the results for `O=C(CN1CCCCC1)Nc1cc([N+](=O)[O-])ccc1F` are 4.4%, 14.3% and 0%.
As to `O=C(CCl)Nc1cc([N+](=O)[O-])ccc1N1CCCCC1`, the Activity in the assay with Trypanosoma cruzi [1] is on record as 34.8%; with Trypanosoma cruzi [2] it was 84%; with J774 [3], 6.3%; with Trypanosoma cruzi [4], 7.1%; in the assay with J774 [5] it was 8.1%; in the assay with J774 [7] it was 24.9%.
As to `O=C1Nc2cc([N+](=O)[O-])ccc2N2CCCC12` (stereo not given), the Activity came to 70.3% in the assay with Trypanosoma cruzi [1]; 90.5% in the assay with Trypanosoma cruzi [2]; 13.3% in the assay with Trypanosoma cruzi [8]; 0% in the assay on J774 [3]; 25.6% in the assay with Trypanosoma cruzi [4]; 0% in the assay with J774 [5]. Moreover, the Activity with Trypanosoma cruzi [6] was determined as 30.2%; in the assay with J774 [7], 23.6%.
For the molecule `CN1C(=O)CN(CCCCCCl)c2ccc([N+](=O)[O-])cc21`, the Activity amounted to 82.2% in the assay on Trypanosoma cruzi [1]; 83.3% with Trypanosoma cruzi [2]; 17.8% with J774 [3]; 15% in the assay on Trypanosoma cruzi [4]; 0% with J774 [5]; 99.5% in the assay on J774 [7].
For the molecule `O=C(Cn1ccnc1[N+](=O)[O-])NCc1ccccc1` [BENZNIDAZOLE], the Activity in the assay on Trypanosoma cruzi [9] turned out to be 83.2%; with Trypanosoma cruzi [8] it was 9.2%; in the assay on J774 [3], 1.6%; in the assay with J774 [5], 1.9%; in the assay with Trypanosoma cruzi [6] it was 96.6%; in the assay on J774 [7] it was 1.4%.
In the case of `CC1CS(=O)(=O)CCN1/N=C/c1ccc([N+](=O)[O-])o1` (stereo not given) [NIFURTIMOX], the Activity with Trypanosoma cruzi [1] stood at 90%; in the assay on Trypanosoma cruzi [9], 88.1%; with Trypanosoma cruzi [2], 98.7%; in the assay on Mus musculus, 100%; with Trypanosoma cruzi [8], 94.4%; in the assay with J774 [3], 0.6%. Further, the Activity in the assay on Trypanosoma cruzi [4] was found to be 75.5%; in the assay on J774 [5], 0%; with Trypanosoma cruzi [6] it was 100%; with J774 [7] it was 25.9%.
